Source: paper PMC11440381, “Facile and scale-up syntheses of high-performance enzyme@meso-HOF biocatalysts” (Chemical Science, 2024)

Biological target: T1, horseradish peroxidase (HRP) (Armoracia rusticana, UniProt P00433)
T1 construct: gene PRXC1A; free or encapsulated in HOF-PTBA
T1 sequence (P00433 31-338): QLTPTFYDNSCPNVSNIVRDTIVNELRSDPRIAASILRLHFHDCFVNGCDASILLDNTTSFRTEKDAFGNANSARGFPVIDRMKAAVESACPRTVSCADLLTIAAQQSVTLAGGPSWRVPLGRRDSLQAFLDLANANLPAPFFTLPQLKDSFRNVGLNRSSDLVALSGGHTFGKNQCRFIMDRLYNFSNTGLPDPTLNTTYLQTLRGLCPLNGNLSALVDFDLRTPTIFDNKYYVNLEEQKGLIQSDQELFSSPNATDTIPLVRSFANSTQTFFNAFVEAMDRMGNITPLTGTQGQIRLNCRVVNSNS
Experiment: GOx-HRP cascade, UV-vis of oxidised TMB
Assay type: biochemical
Details: co-substrate H2O2 made by GOx from glucose; free GOx&HRP mixture and GOx&HRP@HOF-PTBA both tested

Cc1cc(-c2cc(C)c(N)c(C)c2)cc(C)c1N [TMB]
GOx-HRP cascade, UV-vis of oxidised TMB: H2O2 subsequently acting as a substrate for HRP to catalyze the oxidation of TMB
